Here are results for three compounds from US20230310390A1, “INHIBITORS OF SHORT-CHAIN DEHYDROGENASE ACTIVITY FOR TREATING NEURODEGENERATION” (CASE WESTERN RESERVE UNIVERSITY, priority 2020, published 2023).

Where two headings read alike, the source gives them in different places.

Data set [1] relates to C57/B6 mice exposed to TBI. Briefly: Silver staining for axon degeneration after TBI. Conditions: 3 weeks after TBI, 5 mg/kg twice daily started 24 hours after injury; 5 mg/kg. The data set is classed as in vivo. Here is the method:
8 week old C57/B6 mice were exposed to sham-injury or TBI. Twice daily treatment with 5 mg/kg (+)-SW033291, 5 mg/kg (−)-SW033291, or vehicle was started 24 hours after injury and continued throughout the duration of the experiment. Animals were sacrificed by transcardial perfusion 3 weeks after TBI or sham-injury, and fixed brains were processed for silver staining. […] Individual mouse data points are shown on the graph. Data was analyzed using two-way repeated measures ANOVA; * p<0.05, ** p<0.01. All data is mean±SEM.

The subject of a further data set is neurons. Conditions: in vitro, activation of the EP2 receptors; cited from earlier work.
The conditions of data set [2]: cited from earlier work.

For `CCCC[S+]([O-])c1sc2nc(-c3cccs3)cc(-c3ccccc3)c2c1N` (single isomer, unassigned; (-)) [(−)-SW033291, reference compound], in data set [1], the “silver staining (axon degeneration)” value is listed as “protection was not noted”.
For `CCCC1([C@H](O)C/C=C/[C@H]2[C@H](O)CC(=O)[C@@H]2CCCCCCC(=O)OC)CCC1` [butaprost], in the data set with neurons, the “protection of neurons from amyloid peptide neurotoxicity” value is on record as “protected neurons from amyloid 0-peptide neurotoxicity in vitro”.
Consider `CCCCC[C@H](O)/C=C/[C@H]1[C@H](O)CC(=O)[C@@H]1C/C=C\CCCC(=O)O` [PGE2, prostaglandin E2], for which the half-life entry in data set [2] (following intravenous injection) is reported as “less than 1 min”; in data set [2] (in the circulatory system), “approximately 30 sec”.
